{
  "source": "patent US5968949A",
  "about": "“Substituted hydroisoquinoline derivatives and their use as pharmaceuticals” (SmithKline Beecham S.p.A., priority 1995, dated 1999)",
  "tested_on": "delta receptor",
  "assay": "Radioligand binding assay, [3H]-DADLE in mouse brain membranes",
  "details": "stated in words after the delta affinity range",
  "method": "The activity of the compounds of the present invention as selective delta ligands is determined in radioligand binding assays as described below.\nMouse brain membranes were prepared as described by Kosterlitz (Br. J. Pharmacol., 1981, 73, 939.). The binding of the preferential delta ligand [^3 H]-[D-Ala^2,D-Leu^5 ]-enkephalin (DADLE) was evaluated at its KD concentration (1.3 nM) in presence of 40 nM of the unlabelled mu ligand [D-Ala^2, MePhe^4, Gly-ol5]-enkephalin (DAMGO). The binding of the mu ligand [^3 H]-DAMGO (Eur. J. Pharmacol., 1989, 166, 213) and of the kappa ligand [^3 H]-U69593 (Excerpta Medica, 1990, 211) were carried out at 0.5 nM. The non-specific binding was determined in presence of naloxone (10 μM) for all tritiated ligands. Binding data were expressed as percentage of inhibition and fitted the following equation: f(x)=100.X/(IC50 +X) where X are cold drug concentration values. The IC50 obtained were used to calculate the inhibitory constants (Ki) accordingly to the Cheng and Prusoff relation (Biochem. Pharmacol., 1973, 22, 3099).",
  "data": [
    {"smiles": "CN1CC[C@]2(c3cccc(O)c3)CC(c3ccccc3)=CC[C@H]2C1", "note": "(racemic) [Example 3, (±)-trans-4a-(3-Hydroxyphenyl)-2-methyl-6-phenyl-1,2,3,4,4a,5,8,8a-octahydroisoquinoline]", "values": [
      {"measurement": "potency rank among the exemplified compounds", "value": "most potent of the exemplified compounds"}
    ]}
  ]
}
